In ChEMBL document CHEMBL1177780, “Montmorillonite K-10 catalyzed cyclization of N-ethoxycarbonyl-N'-arylguanidines: access to pyrimido[4,5-c]carbazole and pyrimido[5,4-b]indole derivatives” (Bioorg Med Chem Lett, 2010):
Calls of active or inactive are those of the source. The calls are words filed in the database; no cut-off is given here.

Assays:
HL-60 = experiment: Cytotoxicity against human topoisomerase 2-sensitive HL60 cells after 72 hrs by MTT assay; format: functional, cell-based; settings: HL-60, 72 h
[1] = Cytotoxicity against human HL60/MX2 cells after 72 hrs by MTT assay; format: functional, cell-based; settings: HL60/MX2, 72 h
Calf thymus DNA [2] = experiment: Binding affinity to calf thymus DNA assessed as change in melting temperature at 10 uM; format: nucleic-acid assay; settings: Bos taurus
Calf thymus DNA [3] = experiment: Binding affinity to calf thymus DNA assessed as change in melting temperature at 20 uM; format: nucleic-acid assay; settings: Bos taurus
Nucleic Acid [4] = experiment: Binding affinity to [poly(dAdT)]2 DNA assessed as change in melting temperature at 10 uM; format: nucleic-acid assay
Nucleic Acid [5] = experiment: Binding affinity to [poly(dAdT)]2 DNA assessed as change in melting temperature at 20 uM; format: nucleic-acid assay
[6] = molecular target: T1, DNA topoisomerase 1 (Homo sapiens) (UniProt P11387); experiment: Inhibition of human topoisomerase 1-mediated relaxation of pUC18 DNA assessed as formation of nicked DNA up to 50 uM using ethidium bromide staining by agarose gel electrophoresis
T1 sequence (whole entry): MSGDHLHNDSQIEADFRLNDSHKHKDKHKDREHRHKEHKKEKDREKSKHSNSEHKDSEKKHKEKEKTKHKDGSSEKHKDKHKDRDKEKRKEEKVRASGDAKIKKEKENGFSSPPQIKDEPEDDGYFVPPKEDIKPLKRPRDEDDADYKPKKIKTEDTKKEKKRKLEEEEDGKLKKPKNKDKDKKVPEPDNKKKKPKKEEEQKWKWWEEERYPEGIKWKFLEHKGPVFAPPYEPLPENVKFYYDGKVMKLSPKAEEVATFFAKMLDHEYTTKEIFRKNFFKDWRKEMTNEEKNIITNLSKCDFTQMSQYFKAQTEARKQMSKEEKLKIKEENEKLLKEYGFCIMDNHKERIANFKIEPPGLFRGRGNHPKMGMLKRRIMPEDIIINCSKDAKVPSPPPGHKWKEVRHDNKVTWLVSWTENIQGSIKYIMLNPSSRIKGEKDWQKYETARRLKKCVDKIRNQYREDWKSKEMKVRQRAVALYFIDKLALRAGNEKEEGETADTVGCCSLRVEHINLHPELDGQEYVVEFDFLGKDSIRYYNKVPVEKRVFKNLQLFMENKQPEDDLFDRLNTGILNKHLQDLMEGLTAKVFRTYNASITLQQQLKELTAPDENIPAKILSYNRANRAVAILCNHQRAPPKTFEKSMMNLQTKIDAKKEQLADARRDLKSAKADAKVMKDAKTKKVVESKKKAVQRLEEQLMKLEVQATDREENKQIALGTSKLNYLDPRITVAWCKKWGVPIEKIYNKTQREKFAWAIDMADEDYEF

[7] = molecular target: DNA topoisomerase 2-alpha (Homo sapiens) (UniProt P11388); experiment: Inhibition of human topoisomerase 2-mediated relaxation of pUC18 DNA assessed as formation of nicked DNA at 50 uM using ethidium bromide staining by agarose gel electrophoresis
Sequence of DNA topoisomerase 2-alpha (Homo sapiens) (P11388 whole entry): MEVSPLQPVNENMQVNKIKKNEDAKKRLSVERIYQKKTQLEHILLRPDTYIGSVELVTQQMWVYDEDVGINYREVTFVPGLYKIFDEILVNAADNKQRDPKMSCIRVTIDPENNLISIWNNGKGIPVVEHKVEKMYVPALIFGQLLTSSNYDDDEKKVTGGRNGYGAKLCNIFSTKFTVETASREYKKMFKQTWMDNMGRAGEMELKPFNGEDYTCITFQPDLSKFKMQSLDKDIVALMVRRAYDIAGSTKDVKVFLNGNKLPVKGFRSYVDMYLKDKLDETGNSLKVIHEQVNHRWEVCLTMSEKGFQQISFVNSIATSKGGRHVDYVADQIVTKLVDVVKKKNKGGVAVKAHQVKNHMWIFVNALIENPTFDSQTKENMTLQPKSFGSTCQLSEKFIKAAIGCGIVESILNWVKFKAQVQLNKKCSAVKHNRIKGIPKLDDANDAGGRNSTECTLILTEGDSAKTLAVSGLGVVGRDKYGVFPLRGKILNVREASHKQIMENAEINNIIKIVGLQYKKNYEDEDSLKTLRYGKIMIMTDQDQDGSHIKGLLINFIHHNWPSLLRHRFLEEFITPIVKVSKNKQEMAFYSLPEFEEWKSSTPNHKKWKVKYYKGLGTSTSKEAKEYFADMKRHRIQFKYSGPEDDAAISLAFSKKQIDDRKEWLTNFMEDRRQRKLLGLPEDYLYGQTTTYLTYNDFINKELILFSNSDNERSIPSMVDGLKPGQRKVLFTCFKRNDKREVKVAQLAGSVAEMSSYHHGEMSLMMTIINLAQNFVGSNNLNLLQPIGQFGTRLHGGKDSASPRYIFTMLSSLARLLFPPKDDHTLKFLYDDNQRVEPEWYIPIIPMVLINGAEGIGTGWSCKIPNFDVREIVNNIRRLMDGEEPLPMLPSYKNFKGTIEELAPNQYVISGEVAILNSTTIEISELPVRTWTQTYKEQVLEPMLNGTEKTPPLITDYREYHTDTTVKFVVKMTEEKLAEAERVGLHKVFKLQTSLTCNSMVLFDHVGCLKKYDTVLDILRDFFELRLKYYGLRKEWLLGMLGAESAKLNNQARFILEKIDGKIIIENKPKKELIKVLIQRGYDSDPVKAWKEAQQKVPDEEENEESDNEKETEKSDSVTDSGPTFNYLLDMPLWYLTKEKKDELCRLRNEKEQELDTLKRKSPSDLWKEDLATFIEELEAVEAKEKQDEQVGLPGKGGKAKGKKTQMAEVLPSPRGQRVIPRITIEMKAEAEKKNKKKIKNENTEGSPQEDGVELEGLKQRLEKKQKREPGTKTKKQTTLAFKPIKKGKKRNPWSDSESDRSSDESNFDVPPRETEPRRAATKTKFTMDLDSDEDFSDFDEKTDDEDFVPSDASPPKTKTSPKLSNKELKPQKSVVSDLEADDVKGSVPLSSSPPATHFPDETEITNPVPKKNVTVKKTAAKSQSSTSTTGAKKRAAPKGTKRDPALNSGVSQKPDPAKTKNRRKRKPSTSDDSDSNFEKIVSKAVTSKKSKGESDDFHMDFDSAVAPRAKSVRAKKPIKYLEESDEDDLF

COc1cc([C@@H]2c3cc4c(cc3[C@@H](O[C@@H]3O[C@@H]5CO[C@@H](C)O[C@H]5[C@H](O)[C@H]3O)[C@H]3COC(=O)[C@H]23)OCO4)cc(OC)c1O [ETOPOSIDE]
IC50 (HL-60): 1.3 µM | IC50 [1]: 11.9 µM | ΔTm (Calf thymus DNA [2]): 0 °C | ΔTm (Calf thymus DNA [3]): 0 °C | ΔTm (Nucleic Acid [4]): 0 °C | ΔTm (Nucleic Acid [5]): 0 °C

CCn1c2ccccc2c2c3c(=O)[nH]c(NCCN(C)C)nc3ccc21
IC50 (HL-60): 17 µM | IC50 [1]: 17 µM | inhibition [6]: inactive | ΔTm (Calf thymus DNA [2]): 3 °C | ΔTm (Calf thymus DNA [3]): 2.3 °C | ΔTm (Nucleic Acid [4]): 15.9 °C | ΔTm (Nucleic Acid [5]): 15.4 °C

CN(C)CCNc1nc2c([nH]c3ccccc32)c(=O)[nH]1
IC50 (HL-60): > 100 µM | IC50 [1]: > 100 µM | inhibition [7]: 10% | inhibition [6]: inactive | ΔTm (Calf thymus DNA [2]): 0.4 °C | ΔTm (Calf thymus DNA [3]): 0 °C | ΔTm (Nucleic Acid [4]): 4.4 °C | ΔTm (Nucleic Acid [5]): 3 °C
